{
  "source": "paper PMC9516332",
  "about": "(Frontiers in Oncology, 2022)",
  "test_system": "134 cancer cell lines",
  "assay": "Cell viability assay (ATPlite, 72 hours), IC50 on cancer cell line panel",
  "note": "Like-named read-outs stand apart in the source and are kept apart here.",
  "data": [
    {"smiles": "C[C@H](Nc1ncnc2nc[nH]c12)c1cc2cccc(Cl)c2c(=O)n1-c1ccccc1", "note": "[duvelisib]", "values": [
      {"measurement": "IC50", "setting": "Homo sapiens, MOLT-4, read-out: IC50 in cell proliferation assay, MOLT-4 cell line", "result": 5.92, "unit": "µM"},
      {"measurement": "IC50", "setting": "Homo sapiens, MV4-11, read-out: IC50 in cell proliferation assay, MV4-11 cell line (FLT3 ITD)", "result": 0.014, "unit": "µM"},
      {"measurement": "IC50", "setting": "Homo sapiens, MeWo, read-out: IC50 in cell proliferation assay, MeWo cell line", "result": 28.1, "unit": "µM"},
      {"measurement": "IC50", "setting": "Homo sapiens, NCCIT, read-out: IC50 in cell proliferation assay, NCC-IT cell line", "result": 10.6, "unit": "µM"},
      {"measurement": "IC50", "setting": "Homo sapiens, NCI-H82, read-out: IC50 in cell proliferation assay, cell line NCI-H82", "result": "> 31.6", "unit": "µM"},
      {"measurement": "IC50", "setting": "Homo sapiens, NCI-H460, read-out: IC50 in cell proliferation assay, NCI-H460 cell line", "result": 11.1, "unit": "µM"},
      {"measurement": "IC50", "setting": "Homo sapiens, NCI-H661, read-out: IC50 in cell proliferation assay, NCI-H661 cell line", "result": 3.22, "unit": "µM"},
      {"measurement": "IC50", "setting": "Homo sapiens, NCI-H716, read-out: IC50 in cell proliferation assay, cell line NCI-H716 (FGFR2-COL14A1)", "result": 5.31, "unit": "µM"},
      {"measurement": "IC50", "setting": "Homo sapiens, NCI-H1650, read-out: IC50 in cell proliferation assay, NCI-H1650 cell line (EGFR exon19del)", "result": 11, "unit": "µM"},
      {"measurement": "IC50", "setting": "Homo sapiens, NCI-H1975, read-out: IC50 in cell proliferation assay, NCI-H1975 cell line (EGFR p.L858R + p.T790M)", "result": 7.77, "unit": "µM"},
      {"measurement": "IC50", "setting": "Homo sapiens, NCI-H2228, read-out: IC50 in cell proliferation assay, NCI-H2228 cell line (EML4-ALK)", "result": 13.8, "unit": "µM"},
      {"measurement": "IC50", "setting": "Homo sapiens, OVCAR-3, read-out: IC50 in cell proliferation assay, cell line OVCAR-3", "result": 0.617, "unit": "µM"},
      {"measurement": "IC50", "setting": "Homo sapiens, PFSK-1, read-out: IC50 in cell proliferation assay, cell line PFSK-1", "result": 13.1, "unit": "µM"},
      {"measurement": "IC50", "setting": "Homo sapiens, RL95-2, read-out: IC50 in cell proliferation assay, cell line RL95-2 (EGFR p.A289V)", "result": 3.6, "unit": "µM"},
      {"measurement": "IC50", "setting": "Homo sapiens, RPMI-7951, read-out: IC50 in cell proliferation assay, cell line RPMI-7951 (BRAF p.V600E)", "result": 2.81, "unit": "µM"},
      {"measurement": "IC50", "setting": "Homo sapiens, RS4-11, read-out: IC50 in cell proliferation assay, cell line RS4;11", "result": 9.2, "unit": "µM"},
      {"measurement": "IC50", "setting": "Homo sapiens, Rec1, read-out: IC50 in cell proliferation assay, cell line REC-1", "result": 14.4, "unit": "µM"},
      {"measurement": "IC50", "setting": "Homo sapiens, SHP77, read-out: IC50 in cell proliferation assay, cell line SHP-77", "result": "> 31.6", "unit": "µM"},
      {"measurement": "IC50", "setting": "Homo sapiens, SK-BR-3, read-out: IC50 in cell proliferation assay, cell line SK-BR-3 (ERBB2 amplification)", "result": 2.33, "unit": "µM"},
      {"measurement": "IC50", "setting": "Homo sapiens, SK-N-AS, read-out: IC50 in cell proliferation assay, cell line SK-N-AS", "result": "> 31.6", "unit": "µM"},
      {"measurement": "IC50", "setting": "Homo sapiens, SK-N-FI, read-out: IC50 in cell proliferation assay, cell line SK-N-FI", "result": "> 31.6", "unit": "µM"},
      {"measurement": "IC50", "setting": "Homo sapiens, SK-N-MC, read-out: IC50 in cell proliferation assay, cell line SK-N-MC", "result": 12.2, "unit": "µM"},
      {"measurement": "IC50", "setting": "Homo sapiens, SK-N-SH, read-out: IC50 in cell proliferation assay, cell line SK-N-SH (ALK p.F1174L)", "result": 12.6, "unit": "µM"},
      {"measurement": "IC50", "setting": "Homo sapiens, SNU-5, read-out: IC50 in cell proliferation assay, cell line SNU-5 (MET amplification)", "result": 11.2, "unit": "µM"},
      {"measurement": "IC50", "setting": "Homo sapiens, SNU-16, read-out: IC50 in cell proliferation assay, cell line SNU-16 (FGFR2 amplification)", "result": "> 31.6", "unit": "µM"},
      {"measurement": "IC50", "setting": "Homo sapiens, SNU-C2B, read-out: IC50 in cell proliferation assay, cell line SNU-C2B (EGFR p.R165Q)", "result": 9.36, "unit": "µM"},
      {"measurement": "IC50", "setting": "Homo sapiens, SU-DHL-1, read-out: IC50 in cell proliferation assay, cell line SU-DHL-1 (NPM1-ALK)", "result": 22.6, "unit": "µM"},
      {"measurement": "IC50", "setting": "Homo sapiens, SU-DHL-6, read-out: IC50 in cell proliferation assay, cell line SU-DHL-6", "result": 0.00177, "unit": "µM"},
      {"measurement": "IC50", "setting": "Homo sapiens, SUP-T1, read-out: IC50 in cell proliferation assay, cell line SUP-T1", "result": 29.3, "unit": "µM"},
      {"measurement": "IC50", "setting": "Homo sapiens, SW48, read-out: IC50 in cell proliferation assay, cell line SW48 (EGFR p.G719S)", "result": 5.94, "unit": "µM"},
      {"measurement": "IC50", "setting": "Homo sapiens, SW480, read-out: IC50 in cell proliferation assay, cell line SW480", "result": 30.5, "unit": "µM"},
      {"measurement": "IC50", "setting": "Homo sapiens, SW626, read-out: IC50 in cell proliferation assay, cell line SW626", "result": 24.9, "unit": "µM"},
      {"measurement": "IC50", "setting": "Homo sapiens, SW780, read-out: IC50 in cell proliferation assay, cell line SW780 (FGFR3-BAIAP2L1)", "result": "> 31.6", "unit": "µM"},
      {"measurement": "IC50", "setting": "Homo sapiens, SW837, read-out: IC50 in cell proliferation assay, cell line SW837", "result": 25.9, "unit": "µM"},
      {"measurement": "IC50", "setting": "Homo sapiens, SW872, read-out: IC50 in cell proliferation assay, cell line SW872 (BRAF p.V600E)", "result": 23.7, "unit": "µM"},
      {"measurement": "IC50", "setting": "Homo sapiens, SW900, read-out: IC50 in cell proliferation assay, cell line SW900", "result": 7.57, "unit": "µM"},
      {"measurement": "IC50", "setting": "Homo sapiens, SW948, read-out: IC50 in cell proliferation assay, cell line SW948", "result": 12.7, "unit": "µM"},
      {"measurement": "IC50", "setting": "Homo sapiens, SW982, read-out: IC50 in cell proliferation assay, cell line SW982 (BRAF p.V600E)", "result": 4.21, "unit": "µM"},
      {"measurement": "IC50", "setting": "Homo sapiens, SW-620, read-out: IC50 in cell proliferation assay, cell line SW620", "result": 20.1, "unit": "µM"},
      {"measurement": "IC50", "setting": "Homo sapiens, T98G, read-out: IC50 in cell proliferation assay, cell line T98G", "result": 4.8, "unit": "µM"},
      {"measurement": "IC50", "setting": "Homo sapiens, TCC-SUP, read-out: IC50 in cell proliferation assay, cell line TCCSUP", "result": 21.6, "unit": "µM"},
      {"measurement": "IC50", "setting": "Homo sapiens, THP-1, read-out: IC50 in cell proliferation assay, cell line THP-1", "result": 0.15, "unit": "µM"},
      {"measurement": "IC50", "setting": "Homo sapiens, U2OS, read-out: IC50 in cell proliferation assay, cell line U2OS", "result": 8.82, "unit": "µM"},
      {"measurement": "IC50", "setting": "Homo sapiens, U-87 MG, read-out: IC50 in cell proliferation assay, cell line U-87MG ATCC", "result": 10.5, "unit": "µM"},
      {"measurement": "IC50", "setting": "Homo sapiens, U-118-MG, read-out: IC50 in cell proliferation assay, cell line U-118MG", "result": "> 31.6", "unit": "µM"},
      {"measurement": "IC50", "setting": "Homo sapiens, UMUC3, read-out: IC50 in cell proliferation assay, cell line UM-UC-3", "result": 25.3, "unit": "µM"},
      {"measurement": "IC50", "setting": "Hs766T, read-out: IC50 in cell proliferation assay, Hs 766T cell line", "result": 18.6, "unit": "µM"},
      {"measurement": "IC50", "setting": "L-82, read-out: IC50 in cell proliferation assay, L-82 cell line (NPM1-ALK)", "result": 22.1, "unit": "µM"},
      {"measurement": "IC50", "setting": "Rh30, read-out: IC50 in cell proliferation assay, cell line Rh30", "result": 12.2, "unit": "µM"},
      {"measurement": "IC50", "setting": "read-out: IC50 in cell proliferation assay, 11-18 cell line (EGFR p.L858R)", "result": 12.9, "unit": "µM"},
      {"measurement": "IC50", "setting": "read-out: IC50 in cell proliferation assay, Hs 852.T cell line", "result": 21.4, "unit": "µM"},
      {"measurement": "IC50", "setting": "read-out: IC50 in cell proliferation assay, JAR cell line", "result": 0.234, "unit": "µM"},
      {"measurement": "IC50", "setting": "read-out: IC50 in cell proliferation assay, cell line 5637", "result": 28, "unit": "µM"},
      {"measurement": "IC50", "setting": "read-out: IC50 in cell proliferation assay, cell line A-388", "result": 12.4, "unit": "µM"},
      {"measurement": "IC50", "setting": "read-out: IC50 in cell proliferation assay, cell line DB", "result": "> 31.6", "unit": "µM"},
      {"measurement": "IC50", "setting": "read-out: IC50 in cell proliferation assay, cell line DEL (NPM1-ALK)", "result": "> 31.6", "unit": "µM"},
      {"measurement": "IC50", "setting": "read-out: IC50 in cell proliferation assay, cell line ES-2 (BRAF p.V600E)", "result": "> 31.6", "unit": "µM"},
      {"measurement": "IC50", "setting": "read-out: IC50 in cell proliferation assay, cell line PA-1", "result": 10.7, "unit": "µM"},
      {"measurement": "IC50", "setting": "read-out: IC50 in cell proliferation assay, cell line PC-3", "result": 5.81, "unit": "µM"},
      {"measurement": "IC50", "setting": "read-out: IC50 in cell proliferation assay, cell line RD", "result": 27.6, "unit": "µM"},
      {"measurement": "IC50", "setting": "read-out: IC50 in cell proliferation assay, cell line RKO (BRAF p.V600E)", "result": 8.82, "unit": "µM"},
      {"measurement": "IC50", "setting": "read-out: IC50 in cell proliferation assay, cell line RL", "result": 24, "unit": "µM"},
      {"measurement": "IC50", "setting": "read-out: IC50 in cell proliferation assay, cell line RT-4 (FGFR3-TACC3)", "result": 9.68, "unit": "µM"},
      {"measurement": "IC50", "setting": "read-out: IC50 in cell proliferation assay, cell line SR (NPM1-ALK)", "result": 14.1, "unit": "µM"},
      {"measurement": "IC50", "setting": "read-out: IC50 in cell proliferation assay, cell line T24", "result": 31.2, "unit": "µM"},
      {"measurement": "IC50", "setting": "read-out: IC50 in cell proliferation assay, cell line TT (RET p.C634W)", "result": "> 31.6", "unit": "µM"},
      {"measurement": "IC50", "setting": "read-out: IC50 in cell proliferation assay, cell line VA-ES-BJ", "result": 2.94, "unit": "µM"}
    ]}
  ]
}
